From patent US5808165A, “β-diketones, processes for making β-diketones and use of β-diketones as stabilizers for PVC” (Rhone-Poulenc Chimie, priority 1992, dated 1998)

Tests used:
[1] = Vapor pressure at 180° C.; format: physicochemical
Protocol: Study of the physico-chemical properties of the β-diketones
Table 1 gives the vapor pressures at 180° C., which is a typical temperature at which PVC is employed.

Physical state = format: physicochemical
[2] = Solubility in dioctyl phthalate, "DOP"; format: physicochemical
[3] = Solubility in "one-pack" additive; format: physicochemical
[4] = Acute toxicity LD50 per os in the rat; conditions: in vivo, po
Description: Generally, toxicity increases or decreases linearly with the number of carbon atoms in the compound. […] Certain β-diketones, which are not a part of the present invention, have a toxicity which is non-negligible but low. […] In sharp contrast, the toxicity of the β-diketone compounds according to the present invention can be so low as to be not measurable.

[5] = Odor during storage / under operating conditions in PVC; conditions: during storage of the composition or transformation of the PVC
Description: In addition, under operating conditions in PVC, the β-diketone compositions according to the present invention can release substantially no odor, in sharp contrast to closely related compounds.

[6] = Solubility in the principal constituents of an "all in one" additive; format: physicochemical; parameters: key: S: Mixture soluble; S1: Mixture soluble but viscous; S2: Mixture soluble but very viscous; I: Mixture insoluble
Description: Solubility in the principal constituents of an "all in one" additive
The purpose was to compare the behavior of a mixture based on a composition according to the invention with a mixture based on dibenzoylmethane, in preparing a mixture of stabilizing agents.
The mixtures were weighed in screw-capped bottles.
The bottles were placed in a shaking machine for agitation, for several hours.

[7] = Solubility of dibenzoylmethane in solvents (comparative)

For Isoundecanoylacetophenone, the “Vapor pressure at 180° C.” value [1] was 1.5 mmHg and the Physical state (Physical state) was “Liquid”.

For `CCCCCCC(=O)CC(=O)c1ccccc1` [Heptanoylacetophenone, heptanoyl-benzoylmethane], the “Vapor pressure at 180° C.” value [1] was 7 mmHg, the Physical state (Physical state) was “Liquid” and the “Solubility in dioctyl phthalate, "DOP"” value ([2]; 3° C.) was over 100 g/100 g solvent. The “Solubility in dioctyl phthalate, "DOP"” value ([2]; 23° C.) was over 100 g/100 g solvent, the “Solubility in dioctyl phthalate, "DOP"” value ([2]; -15° C.) was 50-100 g/100 g solvent and the “Solubility in "one-pack" additive” value ([3]; 3° C.) was over 18 g/100 g solvent. The “Solubility in "one-pack" additive” value ([3]; 23° C.) was over 18 g/100 g solvent and the “Solubility in "one-pack" additive” value ([3]; -15° C.) was over 18 g/100 g solvent.

For `CCCCCCCC(=O)CC(=O)c1ccccc1` [Octanoylacetophenone, Octanoylbenzoylmethane], the “Vapor pressure at 180° C.” value [1] was 5.6 mmHg, the Physical state (Physical state) was “Solid” and the “Solubility in dioctyl phthalate, "DOP"” value ([2]; 3° C.) was 50-100 g/100 g solvent. The “Solubility in dioctyl phthalate, "DOP"” value ([2]; 23° C.) was over 100 g/100 g solvent, the “Solubility in dioctyl phthalate, "DOP"” value ([2]; -15° C.) was 12-25 g/100 g solvent and the “Solubility in "one-pack" additive” value ([3]; 3° C.) was over 18 g/100 g solvent. For the same molecule, the “Solubility in "one-pack" additive” value ([3]; 23° C.) was over 18 g/100 g solvent and the “Solubility in "one-pack" additive” value ([3]; -15° C.) was 9-18 g/100 g solvent.

With `CC(C)CC(=O)CC(=O)c1ccccc1` [Isovaleroylacetophenone, isovalerylbenzoylmethane] the “Vapor pressure at 180° C.” value [1] was 28 mmHg, the Physical state (Physical state) was “Liquid” and the LD50 [4] was 4880 mg/kg. For the same molecule, the “odor when degradation occurs” value [5] was “intolerable odor”.

In the case of “Isooctanoylbenzoylmethane [Isooctanoylacetophenone]”, the “Vapor pressure at 180° C.” value [1] is reported as 6 mmHg and the Physical state (Physical state) is reported as “Liquid”.

With `O=C(CC(=O)c1ccccc1)c1ccccc1` [Dibenzoylmethane, dibenzoylmethane] the “Vapor pressure at 180° C.” value [1] was 4 mmHg, the Physical state (Physical state) was “Solid” and the “Solubility in dioctyl phthalate, "DOP"” value ([2]; 3° C.) was “about 10 g/100 g solvent”. For the same molecule, the “Solubility in dioctyl phthalate, "DOP"” value ([2]; 23° C.) was 10-20 g/100 g solvent, the “Solubility in "one-pack" additive” value ([3]; 3° C.) was 5-9 g/100 g solvent and the “Solubility in "one-pack" additive” value ([3]; 23° C.) was “about 9 g/100 g solvent”. The “Solubility in "one-pack" additive” value ([3]; -15° C.) was under 5 g/100 g solvent, the Solubility of mixture ([6]; Ba 0, Zn 0, Phosphite 1/2, β-diketone 1/2) was “I” and the Solubility of mixture ([6]; Ba 0, Zn 0, Phosphite 1/3, β-diketone 2/3) was “I”. For the same molecule, the Solubility of mixture ([6]; Ba 0, Zn 0, Phosphite 2/3, β-diketone 1/3) was “I”, the Solubility of mixture ([6]; Ba 0, Zn 1/2, Phosphite 0, β-diketone 1/2) was “I” and the Solubility of mixture ([6]; Ba 0, Zn 2/3, Phosphite 0, β-diketone 1/3) was “I”. For the same molecule, the Solubility of mixture ([6]; Ba 1/4, Zn 1/4, Phosphite 1/4, β-diketone 1/4) was “I”, the Solubility of mixture ([6]; Ba 1/8, Zn 1/8, Phosphite 3/8, β-diketone 3/8) was “I” and the Solubility of mixture ([6]; Ba 1/10, Zn 2/10, Phosphite 5/10, β-diketone 2/10) was “I”. For the same molecule, the Solubility of mixture ([6]; Ba 1/10, Zn 3/10, Phosphite 0, β-diketone 6/10) was “I”, the Solubility of mixture ([6]; Ba 1/10, Zn 3/10, Phosphite 3/10, β-diketone 3/10) was “I” and the Solubility ([7]; Decalin, 3° C.) was under 5 g/100 g solution. For the same molecule, the Solubility ([7]; Decalin, 25° C.) was 5-10 g/100 g solution, the Solubility ([7]; Dioctyl adipate, DOA, 3° C.) was 10-20 g/100 g solution and the Solubility ([7]; Dioctyl adipate, DOA, 25° C.) was 20-30 g/100 g solution. The Solubility ([7]; Dioctyl adipate, DOA, -15° C.) was 5-10 g/100 g solution, the Solubility ([7]; Dioctyl phthalate, DOP, 25° C.) was 10-20 g/100 g solution and the Solubility ([7]; Dioctyl phthalate, DOP, -15° C.) was 5-10 g/100 g solution. The Solubility ([7]; Diphenyl decyl phosphite, "OS 150", 25° C., only 10% and 20% solutions examined) was under 10 g/100 g solution, the Solubility ([7]; Epoxidized soy oil, ESO, 3° C., probably high (crystallization was slow)) was 10-20 g/100 g solution and the Solubility ([7]; Epoxidized soy oil, ESO, 25° C.) was 10-20 g/100 g solution. The Solubility ([7]; Epoxidized soy oil, ESO, -15° C.) was under 1 g/100 g solution, the Solubility ([7]; Octyl trimellitate, OTM, 25° C.) was 10-20 g/100 g solution and the Solubility ([7]; Octyl trimellitate, OTM, -15° C.) was 5-10 g/100 g solution. For the same molecule, the Solubility ([7]; Phenyl didecyl phosphite, "OS 300", 3° C., only 10% and 20% solutions examined) was 10-20 g/100 g solution, the Solubility ([7]; Phenyl didecyl phosphite, "OS 300", 25° C., only 10% and 20% solutions examined) was 10-20 g/100 g solution and the Solubility ([7]; Phenyl didecyl phosphite, "OS 300", -15° C., only 10% and 20% solutions examined) was under 10 g/100 g solution. The Solubility ([7]; Phosphite of butylcarbitol and bisphenol A, 3° C., only 10% and 20% solutions examined) was 10-20 g/100 g solution, the Solubility ([7]; Phosphite of butylcarbitol and bisphenol A, 25° C., only 10% and 20% solutions examined) was 10-20 g/100 g solution and the Solubility ([7]; Phosphite of butylcarbitol and bisphenol A, -15° C., only 10% and 20% solutions examined) was “about 10 g/100 g solution”. The Solubility ([7]; Tetralin, 3° C.) was 10-20 g/100 g solution, the Solubility ([7]; Tetralin, 25° C.) was 20-30 g/100 g solution and the Solubility ([7]; Tetralin, -15° C.) was under 10 g/100 g solution. The Solubility ([7]; Tridecyl phosphite, "OS 330", 25° C., only 10% and 20% solutions examined) was under 10 g/100 g solution and the Solubility ([7]; Trilauryl phosphite, "OS 360", 25° C., only 10% and 20% solutions examined) was under 10 g/100 g solution.

In the case of Isononanoylacetophenone, the “Vapor pressure at 180° C.” value [1] is reported as 4 mmHg and the Physical state (Physical state) is reported as “Liquid”.

For Isodecanoylacetophenone, the “Vapor pressure at 180° C.” value [1] was 2 mmHg and the Physical state (Physical state) was “Liquid”.
